Patent US7711497B2, “Method of identifying calcium-binding sites in gamma-crystallin useful for management of cataract” (Council of Scientific and Industrial Research, priority 2002, dated 2010)
Blank lines part the entries; values can stand above or below the molecule they belong to. Where no end group is shown, it is not given here.

What was measured:
[1] = Solubility of Greek key peptides; assay type: physicochemical; details: aqueous medium / water
[2] = Stains-all binding assay (induced CD); details: peptides; dye 43 μM
Description: Stains-all Binding Assay-Aliquots of protein solutions were added to the Stains-all solution and mixed gently. Circular dichroism induced in the achiral dye upon binding to the protein was measured in the visible region of the spectrum (400-700 nm). The dye solution and the crystallins were prepared in 2 mM MOPS buffer, pH 7.2, containing 30% ethylene glycol (34, 35). Ellipticities were expressed in millidegrees.
CD spectra of Stains-all induced upon binding to crystallin were recorded in 2 mM MOPS buffer, pH 7.2, containing 30% ethylene glycol, path length 1 cm. Dye concentration in all experiments was 16 μM. The ellipticity data are represented in millidegrees. A, CD spectra recorded with increasing concentration of -crystallin; 1, 0.026 mg/ml (---); 2, 0.078 mg/ml (- - -); 3, 0.13 mg/ml -.-.-. and 4, 0.156 mg/ml (. . .). B, effect of calcium on Stains-all--crystallin complex spectra. Calcium was added in the dye-protein mixture (-crystallin concentration was […]), and CD was recorded. Calcium concentrations used are as follows: 1, no calcium (---); 2, 50 μM calcium (- - - -); 3, 100 μM calcium (. . .); 4, 200 μM calcium (-.-.-.); and 5, 300 μM calcium (-..-..). The J band was abolished with 300-μM calcium.
CD spectra of Stains-all induced upon binding to peptides were recorded. Dye concentration in all experiments was 43 μM. The ellipticity data are represented in millidegrees. a, CD spectra were recorded with increasing concentration of the wild type peptide g3; 0.013 mg/ml (---), 0.037 mg/ml (- - -), and 0.057 mg/ml (. . . .). b, effect of calcium on Stains-all-peptide complex. Calcium was added to the dye-peptide mixture (peptide concentration was 57 μg/ml) and calcium concentrations used were: no calcium (---), 0.7 mM calcium (- - - -), and 7.5 mM calcium (. . . .). c and d represent the Stains-all binding of the modified peptides, g3a and g3b. Identical concentrations of dye and peptides were used.

[3] = 45Ca overlay method (peptide dot-blot); assay type: binding; details: dot-blot on polyvinylidene difluoride membrane
Description: Calcium Binding Studies by ^45Ca Overlay Method-Calcium binding to peptides was done by ^45Ca overlay method of Maruyama et al, 133). […] of peptides were spotted onto a polyvinylidene difluoride membrane by dot-blot apparatus. The membrane was equilibrated in a solution containing 10-mM imidazole HCl. pH 6.8, 60 mM KCl, 5 mM MgCl2 and then incubated for 15 min at 25° C. in the same buffer containing 1 microCi/mil ^45Ca. The membrane was then rinsed twice in 45% ethanol, blotted dry, and exposed to PhosphorImager screen, and the signal was read in Phosphorimager (Fuji Bas-1800).
The wild type peptide g3, its variants (g3a and g3b) and s3a were spotted onto a polyvinylidene difluoride membrane and detected by ^45Ca overlay. For a positive control, EF-hand peptide corresponding to site 4 of rat neuronal calcium sensor-1 was used; bovine serum albumin (BSA) was used as a negative control.

[4] = Calcium binding of single crystallin domain of AIMI; details: compared with gamma-crystallin

Molecule: s3a: control peptide, first Greek key motif of spherulin 3a (residues 14-56), Seq. ID No. 4 (GEVFLYKHVNFQGDSWKVTGNVYDFRSVSGLNDVVSSVKVGPN)
Stains-all binding, induced CD band [2]: binds the dye and induces a calcium-sensitive band at 470-475 nm
solubility [1]: not soluble in water

B1: AIMI: single crystallin domain of AIMI (absent in melanoma), 1022-1117 residues, comprising two Greek keys (protein, UniProt Q9Y4K1 1022-1117, looked up, fragment)
chain: AAKSGPQVIPPASEKTLPIQAQSQGSRTPLMAESSPTNSPSSGNHLATPQRPDQTVTNGQDSPASLLNISAGSDDSVFDSSSDMEKFTEIIKQMDS
modifications: crystallin domain
notes: single crystallin domain of AIMI (absent in melanoma), 1022-1117 residues, comprising two Greek keys
calcium binding affinity [4]: binds calcium with a comparative affinity to gamma-crystallin

Further lines, results first:

solubility [1]: fairly soluble in aqueous medium
Molecule: RMRIYERDDFRGQMSEITDDCPSLQDRFHLTEVHSLNVLEGS [g3]

Stains-all binding, induced CD band [2]: decreased several fold
45Ca binding [3]: do not show detectable binding
Molecule: g3a: g3 mutant with Glu-95 and Glu-121 modified to Lys, Seq. ID No. 2 (RMRIYKRDDFRGQMSEITDDCPSLQDRFHLTKVHSLNVLEGS)

Stains-all binding, induced CD band [2]: binds the dye and induces the band
45Ca binding [3]: do not show detectable binding
Molecule: g3b: g3 mutant with aspartates 108 and 109 replaced by Lys, Seq. ID No. 3 (RMRIYERDDFRGQMSEITKKCPSLQDRFHLTEVHSLNVLEGS)
